Data taken from ChEMBL document CHEMBL1201862, “PubChem BioAssay data set” (2004).
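Method: 48-hour compound exposure of cells in 96-well plates, five concentrations, linear interpolation of endpoints. Here, GI50 denotes the concentration required for 50% inhibition of growth.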 The source made the active and inactive calls. Rule as the data show it: active = GI50 up to about 1.1 µM and inactive = higher.

Experiments:
Experiment in all cases: inhibition of tumour cell growth, NCI panel, 48 h
[1] = tested on: SK-MEL-28
[2] = tested on: NCI-H226
[3] = tested on: A549
[4] = tested on: U-251
[5] = tested on: SK-OV-3
[6] = tested on: HCC 2998
[7] = tested on: SN12C
[8] = tested on: SF-539
[9] = tested on: KM12
[10] = tested on: HOP-62
[11] = tested on: UACC-257
[12] = tested on: MDA-MB-435
[13] = tested on: Hs-578T
[14] = tested on: UACC-62
[15] = tested on: OVCAR-3
[16] = tested on: DU-145
[17] = tested on: NCI/ADR-RES
[18] = tested on: COLO 205
[19] = tested on: BT-549

Measured: GI50

COc1ccc(CC(=O)NCCc2ccc(OC)c(OC)c2OC)cc1
inactive: [1] > 100 µM | [2] > 100 µM | [3] 30.1 µM | [4] > 100 µM | [5] > 100 µM | [6] > 100 µM | [7] > 100 µM | [8] 16.4 µM | [9] > 100 µM | [10] > 100 µM | [11] > 100 µM

N/C(=N\O)NCCN1CCCCCCC1
inactive: [12] > 100 µM | [1] > 100 µM | [2] > 100 µM | [3] > 100 µM | [13] > 100 µM | [5] > 100 µM | [14] > 100 µM | [15] > 100 µM | [16] > 100 µM | [6] > 100 µM | [17] > 100 µM | [7] 37.2 µM | [8] > 100 µM | [9] > 100 µM | [10] > 100 µM | [11] > 100 µM | [18] > 100 µM

CCCn1c(C23CC4CC(CC(C4)C2)C3)nc2ccc(Cl)cc2c1=O
inactive: [12] 36.6 µM | [1] 57.5 µM | [2] > 100 µM | [3] 31.2 µM | [13] 63.2 µM | [4] 45.1 µM | [5] 49.5 µM | [14] 25.9 µM | [15] 49 µM | [16] 27.9 µM | [17] 21.9 µM | [7] 35.2 µM | [8] > 100 µM | [19] 44.2 µM | [9] 31.9 µM | [10] 23.4 µM | [11] 33.2 µM | [18] 37.2 µM

CCN(CC)CC(=N)N(CC)c1ccccc1
inactive: [1] > 100 µM | [2] > 100 µM | [3] > 100 µM | [4] > 100 µM | [5] > 100 µM | [14] > 100 µM | [15] > 100 µM | [6] 93.3 µM | [7] > 100 µM | [8] > 100 µM | [9] > 100 µM | [10] > 100 µM | [11] 43.6 µM | [18] > 100 µM

COc1cccc(C2c3cc4c(cc3OC(N3CCCC3)C2C)OCO4)c1OC (centres undefined)
inactive: [12] 4.06 µM | [3] 3.53 µM | [13] 1.59 µM | [14] 5.78 µM | [15] 1.66 µM | [16] 2.01 µM | [17] 2.32 µM | [7] 3.02 µM | [8] 3.33 µM | [9] 3.08 µM | [10] 8.17 µM | [11] 1.72 µM | [18] 3.46 µM

COc1ccc(-c2onc(-c3c(C)cc(C)cc3C)c2C2=NCCCN2)cc1
inactive: [1] 36.4 µM | [2] 36.4 µM | [3] 65.8 µM | [4] 22.3 µM | [5] 30.6 µM | [14] 55.2 µM | [15] 57 µM | [6] > 100 µM | [7] 50.8 µM | [8] 21.6 µM | [9] 46.3 µM | [10] > 100 µM | [11] 21.1 µM | [18] 27.7 µM

O=C(NCC(=O)N1CCCC1C(=O)OC(=O)C1CCCN1C(=O)CNC(=O)OCc1ccccc1)OCc1ccccc1 (centres undefined)
inactive: [12] 22.5 µM | [1] 28.4 µM | [2] 26.1 µM | [3] 44.8 µM | [13] > 100 µM | [4] 41.8 µM | [5] > 100 µM | [14] 14.7 µM | [15] 43.3 µM | [16] 52 µM | [6] 32.7 µM | [17] > 100 µM | [7] 31.8 µM | [8] 24.5 µM | [9] 18.2 µM | [10] 26.2 µM | [11] 16.7 µM | [18] 18.7 µM

C=Cc1c(C)c(OC)cc2c1Oc1ccc(OC)c(C)c1CC2
inactive: [12] 76 µM | [1] > 100 µM | [2] 39.9 µM | [3] > 100 µM | [13] > 100 µM | [4] > 100 µM | [5] > 100 µM | [14] > 100 µM | [16] > 100 µM | [6] > 100 µM | [17] 49.1 µM | [7] > 100 µM | [8] > 100 µM | [9] > 100 µM | [10] > 100 µM | [11] 43.5 µM | [18] > 100 µM

CSc1ccc(NC(=O)CCl)cc1
inactive: [12] 4.03 µM | [1] 5.7 µM | [2] > 10 µM | [3] 2.44 µM | [13] 3.1 µM | [4] 5.19 µM | [5] > 10 µM | [14] 1.85 µM | [15] 3.75 µM | [16] > 10 µM | [6] 2.18 µM | [17] 3.24 µM | [7] 6.82 µM | [8] 3.95 µM | [9] > 10 µM | [10] 3.52 µM | [11] 6.18 µM | [18] 3.02 µM

O=C1[C@@H]2C(c3ccccc3[N+](=O)[O-])=NO[C@@H]2C(=O)N1c1ccc(Cc2ccc(N3C(=O)[C@H]4C(c5ccccc5[N+](=O)[O-])=NO[C@H]4C3=O)cc2)cc1
inactive: [1] > 100 µM | [4] > 100 µM | [14] > 100 µM | [15] > 100 µM | [6] > 100 µM | [7] > 100 µM | [8] > 100 µM | [9] > 100 µM | [10] > 100 µM | [11] > 100 µM | [18] > 100 µM

CC(=O)OCCCCn1cnc2nc(Nc3ccccc3)nc(Cl)c21
inactive: [12] 34.4 µM | [1] > 100 µM | [2] 57 µM | [3] 61.7 µM | [13] 36.2 µM | [4] > 100 µM | [5] 97.3 µM | [14] 33.7 µM | [15] 55.1 µM | [6] 85.3 µM | [17] 42.4 µM | [7] 90.6 µM | [8] > 100 µM | [19] 26.9 µM | [9] 91.4 µM | [10] 62.7 µM | [11] 58.7 µM | [18] > 100 µM

CC1=CC(=O)/C(=C/Nc2nc(-c3cccc([N+](=O)[O-])c3)cs2)C(=O)O1
inactive: [12] 75.2 µM | [1] > 100 µM | [2] > 100 µM | [3] > 100 µM | [4] 63.1 µM | [5] > 100 µM | [14] 32.5 µM | [15] > 100 µM | [16] > 100 µM | [6] 31.9 µM | [17] 44.4 µM | [7] 66.5 µM | [8] 69 µM | [19] 21.9 µM | [9] 47.2 µM | [10] > 100 µM | [11] > 100 µM | [18] 85.7 µM

O=C(O)C1CCCN(CCc2c[nH]c3ccccc23)C1 (centres undefined)
inactive: [12] > 100 µM | [1] > 100 µM | [2] > 100 µM | [3] > 100 µM | [4] > 100 µM | [5] > 100 µM | [14] > 100 µM | [15] > 100 µM | [16] > 100 µM | [6] > 100 µM | [17] > 100 µM | [7] > 100 µM | [8] > 100 µM | [19] > 100 µM | [9] > 100 µM | [10] > 100 µM | [11] > 100 µM | [18] > 100 µM

CSc1ncnc2c1cnn2Cc1cn(COCC(O)CO)nn1 (centres undefined)
inactive: [12] > 100 µM | [1] > 100 µM | [2] > 100 µM | [3] > 100 µM | [4] > 100 µM | [5] > 100 µM | [14] > 100 µM | [15] > 100 µM | [16] > 100 µM | [6] > 100 µM | [17] > 100 µM | [7] > 100 µM | [8] > 100 µM | [19] > 100 µM | [9] > 100 µM | [10] > 100 µM | [11] > 100 µM | [18] > 100 µM

Cc1nc2c(O)cc3c4c(n(Cc5ccccc5)c3c2nc1C)C(=O)CCC4
inactive: [12] > 100 µM | [1] 22.5 µM | [2] > 100 µM | [3] 50.5 µM | [13] 14.4 µM | [4] 12 µM | [5] 14.6 µM | [14] 24.5 µM | [15] 28.2 µM | [16] 7.13 µM | [6] > 100 µM | [17] 32.1 µM | [7] > 100 µM | [8] 17.5 µM | [9] > 100 µM | [10] 12.7 µM | [11] > 100 µM | [18] 83 µM

O=C1C(Cl)=C(NCCCN2CCOCC2)C(=O)c2c(O)ccc(O)c21
inactive: [12] 1.85 µM | [1] 1.77 µM | [2] 3.54 µM | [3] 3.9 µM | [13] 1.27 µM | [4] 2.19 µM | [5] 7.89 µM | [14] 1.77 µM | [15] 1.61 µM | [16] 1.6 µM | [6] 2.2 µM | [7] 2.01 µM | [8] 1.68 µM | [19] 1.64 µM | [9] 1.85 µM | [10] 1.96 µM | [11] 2.35 µM

CC(=O)[C@]12OC(=O)C3=C1[C@H](CC[C@@H]3C)[C@@H](C)C[C@H]2C=C(C)C
inactive: [12] 7.93 µM | [2] 8.28 µM | [3] 7.48 µM | [13] 8.18 µM | [4] 7.8 µM | [5] 11 µM | [14] 5.68 µM | [15] 7.31 µM | [16] 8.09 µM | [17] 9.12 µM | [7] 8.69 µM | [8] 9.14 µM | [9] 7.62 µM | [10] 8.61 µM | [11] 9.75 µM | [18] 8.79 µM
